Results: ChEMBL document CHEMBL1201862, “PubChem BioAssay data set” (2004)
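Results reflect a 48-hour exposure of cells in 96-well plates to compound at five concentrations. At the GI50, growth is halved.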 Active and inactive are the calls of the source. No stated cut-off is given here; in the data, active = GI50 up to about 1.1 µM and inactive = higher.

Columns and labels:
Experiment in all cases: inhibition of tumour cell growth, NCI panel, 48 h
[1] = system: 786-0
[2] = system: Hs-578T
[3] = system: K562
[4] = system: MDA-MB-435
[5] = system: NCI-H226
[6] = system: NCI-H460
[7] = system: OVCAR-3
[8] = system: PC-3
[9] = system: SF-539
[10] = system: SK-MEL-2
[11] = system: TK-10
[12] = system: UO-31
[13] = system: HOP-62
[14] = system: HOP-92
[15] = system: IGROV-1
[16] = system: KM12
[17] = system: RPMI-8226
[18] = system: SK-OV-3
[19] = system: SNB-75
[20] = system: A498

Measured: GI50

O=C(O)c1cc(/C=C/c2cc(O)ccc2O)ccc1O
inactive: [1] > 10 µM | [2] > 10 µM | [3] 2.85 µM | [4] > 10 µM | [5] > 10 µM | [6] > 10 µM | [7] > 10 µM | [8] > 10 µM | [9] > 10 µM | [10] > 10 µM | [11] > 10 µM | [12] > 10 µM

CSC1C(=O)Nc2ccc3ccccc3c21 (stereo not given)
inactive: [1] 16.1 µM | [13] 34.3 µM | [14] 16.3 µM | [2] 15.3 µM | [15] 16.6 µM | [16] 18.6 µM | [4] > 100 µM | [5] 45.5 µM | [6] > 100 µM | [8] 16.3 µM | [17] 3.13 µM | [9] 17.4 µM | [10] 27.1 µM | [18] > 100 µM | [19] 22.8 µM | [11] 16.8 µM | [12] 16.1 µM

C=CCCCN1C(=O)C2C3c4ccccc4C(C=O)(c4ccccc43)C2C1=O (stereo not given)
inactive: [1] 13.3 µM | [13] 14.5 µM | [14] 11.3 µM | [15] 13.6 µM | [3] 3.62 µM | [16] 4.02 µM | [6] 15.2 µM | [7] 9.02 µM | [8] 6.18 µM | [17] 6.84 µM | [10] 24 µM | [18] 18.2 µM | [11] 16.1 µM | [12] 10.7 µM

COc1ccc(-c2nc(-c3cnccn3)n(C/C=C/c3ccccc3)n2)cc1
inactive: [1] 17.3 µM | [13] 21.5 µM | [14] 11.5 µM | [15] 48.1 µM | [3] > 100 µM | [16] > 100 µM | [4] > 100 µM | [6] > 100 µM | [7] 40.4 µM | [8] > 100 µM | [17] > 100 µM | [9] 26.5 µM | [18] 17.9 µM | [19] 21.8 µM | [12] 49.2 µM

Oc1cn(-c2ccc(Cl)cc2)nc1-c1nnc(Nc2ccccc2)o1
inactive: [1] 16.6 µM | [20] 12.6 µM | [13] 17.7 µM | [2] 24.1 µM | [15] 15.2 µM | [16] 17.7 µM | [4] 16.8 µM | [5] 8.39 µM | [6] 19.9 µM | [7] 31.8 µM | [9] 15.3 µM | [10] 20.2 µM | [18] 24.3 µM | [19] 20.8 µM | [11] 18.5 µM | [12] 14.3 µM

O=C1CC(c2ccc[nH]2)=NN1c1ccccc1
inactive: [1] > 100 µM | [20] > 100 µM | [13] > 100 µM | [14] > 100 µM | [3] 73.5 µM | [16] > 100 µM | [4] > 100 µM | [5] > 100 µM | [6] > 100 µM | [7] > 100 µM | [8] > 100 µM | [17] > 100 µM | [9] > 100 µM | [10] > 100 µM | [18] > 100 µM | [19] > 100 µM | [11] > 100 µM | [12] > 100 µM

COCC[N+](CCNC(=O)c1cccc2c(N)c3cccc(C)c3nc12)(CCOC)Cc1ccc([N+](=O)[O-])cc1
inactive: [1] 19.1 µM | [13] 31.8 µM | [14] 29 µM | [2] 10.8 µM | [15] 11.1 µM | [16] 14.5 µM | [4] 30 µM | [6] 6.47 µM | [7] 16.7 µM | [8] 9.53 µM | [17] 5.6 µM | [9] 17.3 µM | [10] 28.8 µM | [19] 27 µM | [11] 67.3 µM | [12] 63 µM

Cn1c2ccccc2n2c(=O)c3cccnc3c(C#N)c12
inactive: [1] > 100 µM | [20] > 100 µM | [13] 76.2 µM | [14] > 100 µM | [16] > 100 µM | [4] > 100 µM | [5] 4.42 µM | [6] 18.7 µM | [7] > 100 µM | [17] > 100 µM | [9] 66.4 µM | [18] > 100 µM | [19] > 100 µM | [11] > 100 µM

Cc1sc2nc3n(c(=O)c2c1C)N=CN(c1ccc(Cl)cc1)C3
inactive: [1] > 100 µM | [20] > 100 µM | [13] 99.3 µM | [14] > 100 µM | [15] > 100 µM | [3] > 100 µM | [16] > 100 µM | [4] > 100 µM | [5] > 100 µM | [6] > 100 µM | [7] > 100 µM | [8] > 100 µM | [17] > 100 µM | [10] > 100 µM | [18] > 100 µM | [19] > 100 µM | [11] > 100 µM | [12] > 100 µM

NC(=O)CC1(O)C=CC(=O)C=C1
inactive: [1] > 100 µM | [20] > 100 µM | [13] > 100 µM | [14] > 100 µM | [15] > 100 µM | [3] > 100 µM | [16] > 100 µM | [4] > 100 µM | [5] > 100 µM | [6] > 100 µM | [7] > 100 µM | [8] > 100 µM | [17] > 100 µM | [9] > 100 µM | [10] > 100 µM | [18] > 100 µM | [19] > 100 µM | [11] > 100 µM | [12] > 100 µM

Cc1c(C#N)c2nc3ccccc3n2c(=O)/c1=C/Nc1ccc(Cl)cc1
inactive: [1] 6.25 µM | [20] 15.9 µM | [13] 12.9 µM | [14] 20.1 µM | [2] 10.8 µM | [15] 36.1 µM | [3] 2.72 µM | [16] 6.61 µM | [4] 94.4 µM | [5] 42.3 µM | [6] 29.2 µM | [17] 37.8 µM | [9] 12.1 µM | [10] 14.2 µM | [18] 14.1 µM | [19] 7.21 µM | [11] 14.2 µM | [12] 15.7 µM

Cn1c2ccccc2n2c3ncccc3c(=O)cc12
inactive: [1] 37.3 µM | [20] 24.6 µM | [13] 32.1 µM | [14] 54.5 µM | [15] 28.9 µM | [3] 78.3 µM | [16] 71.9 µM | [4] 61.5 µM | [5] 44.3 µM | [6] 33 µM | [7] 50.2 µM | [17] 48.1 µM | [9] 45.9 µM | [18] > 100 µM | [19] 44.1 µM | [11] 74.6 µM | [12] 26.3 µM

CC(C)CC(N)C(=O)OCN1C(=O)C2C3C=CC(C2C1=O)C1C2C(=O)N(COC(=O)C(N)CC(C)C)C(=O)C2C31 (stereo not given)
inactive: [1] > 100 µM | [20] > 100 µM | [13] > 100 µM | [14] > 100 µM | [15] > 100 µM | [3] > 100 µM | [16] > 100 µM | [5] > 100 µM | [6] > 59.7 µM | [7] > 100 µM | [17] > 48.2 µM | [9] > 100 µM | [10] > 100 µM | [18] > 100 µM | [19] > 75 µM | [11] > 100 µM | [12] > 100 µM

COc1cccc(N2C(=O)[C@H]3CC(C)c4c([nH]c5ccccc45)[C@H]3C2=O)c1 (stereo not given in full)
inactive: [1] 21.7 µM | [20] 89.7 µM | [13] 16.8 µM | [14] 20.7 µM | [15] > 100 µM | [3] 46 µM | [16] 57.5 µM | [5] 93.5 µM | [6] > 100 µM | [7] 40.1 µM | [17] 38.9 µM | [9] 29.1 µM | [10] 27.5 µM | [18] 27.7 µM | [19] 19.6 µM | [11] 55.7 µM | [12] 84.7 µM

O=C(Cc1ccccc1)NN1C(=O)/C(=C\c2ccc([N+](=O)[O-])cc2)S/C1=N\c1ccccc1
inactive: [1] > 100 µM | [20] > 100 µM | [13] > 100 µM | [14] 68.9 µM | [2] > 100 µM | [15] > 100 µM | [3] 42.5 µM | [16] > 100 µM | [4] > 100 µM | [5] > 100 µM | [6] > 100 µM | [7] 47.8 µM | [17] > 100 µM | [9] > 100 µM | [10] > 100 µM | [18] > 100 µM | [19] > 100 µM | [11] > 100 µM | [12] > 100 µM

C=C(C)[C@H]1CC[C@@]23O[C@@H]2[C@@H](C[C@@]2(C)CC(=O)[C@H](CC(=O)C1)O2)OC(=O)[C@@]12CC[C@H](C(=C)C)CC(=O)C[C@H]4O[C@](C)(CC4=O)C[C@@H](OC3=O)[C@@H]1O2 [SINGARDIN]
inactive: [1] > 100 µM | [20] > 100 µM | [13] > 100 µM | [14] > 100 µM | [15] 52.8 µM | [3] > 100 µM | [16] 52.5 µM | [4] > 100 µM | [5] > 100 µM | [7] > 100 µM | [8] > 100 µM | [17] > 100 µM | [9] > 100 µM | [10] > 100 µM | [18] > 100 µM | [19] > 100 µM | [11] > 100 µM | [12] > 100 µM
